Patent US10429393B2, “Tumor deconstruction platform for the analysis of intra-tumor heterogeneity” (NATIONAL CENTRE FOR CELL SCIENCE, priority 2014, dated 2019)

Columns and labels:
[1] = system: A4 serous ovarian adenocarcinoma xenografts; assay: Flow cytometric resolution of residual tumour composition (proliferative hierarchy, ploidy, cell cycle; 18 fractions) after therapy; format: in vivo, mice; conditions: for drug sensitive tumour populations (cell targets): individual treatments, grid of FIG. 9
Description: FIG. 8 represents data discussed in Example 3. a. Schematic of paclitaxel administration regime; b. Frequency (±SEM) of tumor fractions based on proliferative hierarchy, ploidy and cell cycle analysis in control and paclitaxel treated where populations 1-18 are as depicted in FIG. 6b, inset indicates frequency of cycling CSCs, 18a-PKH^hi Eu G0, 18b-PKH^hi Eu G1,18c-PKH^hi Eu S, 18d-PKH^hi Eu G2/M, 18e-PKW^hi Aneu G0, 18f-PKH^hi Aneu G1, 18g-PKH^hiAneu S, 18h-PKW^hi Aneu G2/M;*−P<0.05; **−P<0.001; ***−P<0.0001.
FIG. 9 represents the efficacy of various drug regimes through resolution of residual tumor composition after therapy in comparison with a naïve (untreated) tumor for following drug regimes—Pac ST (paclitaxel short-term: 3 doses—48 h intervals—1 week recovery), Pac LT (paclitaxel long-term, 2 cycles of ST regime); Gem ST (gemcitabine short-term, 3 doses—36 h intervals—36 h recovery), Gem LT (gemcitabine long-term, 5 doses—36 h intervals—36 h recovery); 5AzadC (3 doses—48 h intervals—1 week recovery); mAbX (6 doses of an uncharacterised antibody developed in the Bapat lab—48 h intervals—48 h recovery); Gem+mAbX ST combination therapy (3 doses of each drug—48 h intervals—48 h recovery), Gem+mAbX LT combination therapy (2 cycles each comprising of 3 doses of each drug—48 h intervals—1 week recovery); triple drug combination of gemcitabine, mAbX and 5AzadC LT (6 therapeutic cycles, each comprising of 3 doses of each drug at 48 h intervals and 1 week recovery); populations 1-18 and 18a-18h are as defined in FIGS. 6b and 8 respectively.
Standard techniques are used in the process that is illustrative rather than limiting; other common methods are acceptable in the practice of this invention. Tumor tissues were rinsed several times with phosphate buffered saline (PBS) containing antibiotic and/or anti-fungal agents, finely minced and suspended in basal media supplemented with cell dissociation agent(s) with intermittent pipetting to loosen cell aggregates. Various combinations of dissociation agents can be used depending on the tumor type and appearance and including but not being limited to EDTA, EGTA, cocktails of enzymes including trypsin, dispases, collagenases, DNAse, and the like. On dispersion of tumor cell aggregates, enzymatic activity is usually terminated by addition of serum, cells pelleted by centrifugation and washed several times with basal medium and filtered through cell strainers to obtain a single cell suspension. Cell lines are harvested as per established guidelines to obtain a single cell suspension. […] Labeled cells are xenografted in immunocompromised mice, which could be either nude, SCID, Beige/SCID, NOD/SCID, Rag-/Rag-, humanised mice models, or any known experimental xenograft animal model. Control tumors were concurrently generated using unlabeled cells. Xenografts were harvested as per animal experimental protocols and digested to generate single cell suspension from which the different sub-populations were resolved through flow cytometry.
Basic cell parameters FSC and SSC were adjusted with ND filter 1.5/2 with appropriate FSC and SSC thresholds. Cell debris was eliminated based on low FSC—low SSC, doublets using Area—width parameters and RBCs based on nuclear Propidium iodide (PI) staining. PI excitation/emission maxima are at 535/617 nm (PE channel of blue laser used for analysis). Freshly labeled cells are used to set the gates for VMF^hi cells, while TDSCS from unlabeled tumors was used in order to set the gates for VMF^neg cells. Other fluorophores including Hoechst (UV laser), Pyronin Y (PE channel of blue laser), APC (red laser) and others can be incorporated into this scheme based on their compatibility and resolution capabilities of the flow equipment used for data acquisition and/or sorting as per experimental requirements.
G0/G1, S and G2/M (as illustrated in FIG. 3) provides information regarding the proliferative capability of a tumor. […]

[2] = system: A4 serous ovarian adenocarcinoma xenografts; assay: Tumour volume of A4 xenografts after drug regime; format: in vivo, mice; conditions: paclitaxel i.p. 25 mg/kg body weight; at the end of the regime
[3] = paclitaxel treated vs control, FIG. 8b

SMILES	drug sensitive tumour populations (cell targets) [1]	reduction in tumor volumes [2] [%]	CSC re-entry into the cell cycle (cycling populations within PKH^hi fraction) ([1]; after therapy vs naive tumor, FIG. 8b inset, FIG. 9)	frequency of aneuploid progenitor cells ([1]; following paclitaxel treatment vs control)	PKH^hi (CSC) fraction [1, 3]	PKH^neg fraction [1, 3]
Nc1ncn([C@H]2C[C@H](O)[C@@H](CO)O2)c(=O)n1 [5 AzadC, 5AzadC]	effective against aneuploid fractions	–	–	–	–	–
Nc1ccn([C@@H]2O[C@H](CO)[C@@H](O)C2(F)F)c(=O)n1 [gemcitabine]	effective in short-term sensitization of all populations within the PKH^neg fraction	–	–	–	–	–
CC(=O)O[C@H]1C(=O)[C@@]2(C)[C@H]([C@H](OC(=O)c3ccccc3)[C@]3(O)C[C@H](OC(=O)[C@H](O)[C@@H](NC(=O)c4ccccc4)c4ccccc4)C(C)=C1C3(C)C)[C@]1(OC(C)=O)CO[C@@H]1C[C@@H]2O [paclitaxel]	–	50	presence of cycling populations that have undergone less than 3-4 doublings within the PKH^hi fraction	Increased frequency of aneuploid progenitor cells	enhanced PKH^hi (CSC) fraction	decreased PKH^neg fraction
